# Literature values in patent publication US20060068011A1, “Simultaneous encapsulation technique for use in pharmaceutical compositions” (Wyeth, priority 2004, published 2006).
smiles,measurement,value
"COc1ccccc1OCC(O)CO (stereo not shown) [Guaifenesin, guaifenesin]",solubility in water,sparingly water soluble
